Data: paper PMC10215404, “Effect of Indole-Containing Pyrazino[2,1-b]quinazoline-3,6-diones in the Virulence of Resistant Bacteria” (Antibiotics, 2023)
“And” between values parts separate entries of the source, which are not always exact repeats. Equal entries are not always repeated.

Legend:
[1] = system: E. coli AG100A; assay: Real-time ethidium bromide accumulation assay (efflux pump inhibition); conditions: minute 60
[2] = system: E. coli AG100; assay: as above; conditions: minute 60
[3] = system: E. faecalis PSi/107; assay: MIC determination, broth microdilution; format: cell-based; conditions: Enterococcus faecalis
Source text: (§1) Both reference and resistant strains used in this work were employed by our group for the screening of different families of compounds, such as xanthones and thioxanthones.

[4] = system: S. aureus MRSA 272123; assay: MIC determination, broth microdilution; format: cell-based; conditions: Staphylococcus aureus
Source text: as §1

[5] = system: E. faecalis ATCC 29212; assay: MIC determination, broth microdilution; format: cell-based; conditions: Enterococcus faecalis, ATCC29212
Source text: as §1

[6] = system: E. faecalis PFi/2; assay: MIC determination, broth microdilution; format: cell-based; conditions: Enterococcus faecalis
Source text: as §1

[7] = system: S. aureus 66/1 (MRSA); assay: MIC determination, broth microdilution; format: cell-based; conditions: Staphylococcus aureus
Source text: as §1

[8] = system: E. faecalis B3/101 (VRE); assay: MIC determination, broth microdilution; format: cell-based; conditions: Enterococcus faecalis
Source text: as §1

[9] = system: S. aureus ATCC 29213; assay: MIC determination, broth microdilution; format: cell-based; conditions: Staphylococcus aureus
Source text: as §1

[10] = system: S. aureus 272123; assay: Real-time ethidium bromide accumulation assay (efflux pump inhibition); conditions: minute 60
[11] = system: NIH/3T3 mouse fibroblast cell line; assay: Cytotoxicity assay (MTT); format: cell-based; conditions: NIH3T3, 24 h
Experimental: The effects of increasing concentrations of compounds on cell growth were tested in 96-well flat-bottomed microtiter plates. The compounds were diluted in a volume of 100 μL of medium. Afterwards, 1 × 10^4 cells in 100 μL of medium were added to each well, with the exception of the medium control. In the case of NIH/3T3 cells, the compounds were added after seeding the cells at 37 °C overnight. The plates were incubated at 37 °C for 24 h; after the incubation period, 20 μL of MTT solution (from a 5 mg/mL stock) was added to each well. After 4 h of incubation at 37 °C, 100 μL of SDS solution (10% in 0.01 M HCl) was added to each well and the plates were incubated at 37 °C overnight. Cell growth was determined by measuring the optical density (OD) at 540 nm (ref. 630 nm) with a Multiscan EX ELISA reader. Inhibition of cell growth was determined as IC50 values, defined as the inhibitory dose that reduced the growth of the cells exposed to the tested compounds by 50%. IC50 values and the SD of triplicate experiments were calculated by using GraphPad Prism software version 5.00 for Windows with a nonlinear regression curve fit (GraphPad Software, San Diego, CA, USA; www.graphpad.com, accessed on 14 July 2022). Doxorubicin (from a 2 mg/mL stock solution, Teva Pharmaceuticals) was used as the positive control.

[12] = system: MRSA 272123; assay: Biofilm formation, crystal violet method; format: cell-based, Staphylococcus aureus
Experimental: (§2) The antibiofilm effect of the tested compounds was evaluated using the crystal violet method on E. coli AG100, E. coli AG100A, and MRSA 272123. […] CCCP was used as a positive control.
(§3) The biofilm-forming ability of the S. aureus strains was studied in 96-well microtiter plates using TSB broth in the presence of compounds. The biofilm-forming ability of the E. coli strains was studied in 96-well microtiter plates using LB broth in the presence of the compounds. […] The final volume was 200 μL in each well. The positive control was CCCP at 50 µM. Plates were incubated for 48 h at 30 °C with gentle shaking at 100 rpm. After the incubation period, the medium was removed and the plate was washed with water to remove unattached cells. A total of 200 μL CV (0.1% [v/v]) was added to each wells and incubated for 15 min at room temperature. CV was discarded from the wells and the plate was washed with water again. Then, 200 μL of 70% ethanol was added to each well and the biofilm formation was determined by measuring the OD at 600 nm using a Multiscan EX ELISA plate reader (Thermo Labsystems, Cheshire, WA, USA). The antibiofilm effect of the compounds was expressed as the percentage (%) decrease in biofilm formation.

[13] = system: E. coli AG100; assay: Biofilm formation, crystal violet method; format: cell-based, Escherichia coli; conditions: 50 μM
Experimental: as §2, §3

[14] = system: phytopathogenic fungi; design: method as in PMID 22409377; conditions: several phytopathogenic fungi; cited from earlier work

Row | SMILES | RFI ± SD ([1]; compound at 50 μM) | RFI ± SD ([2]; compound at 50 μM) | MIC [4] | RFI ± SD ([10]; compound at 50 μM) | further results
1 | N#CC(C#N)=NNc1cccc(Cl)c1 [CCCP, carbonyl cyanide m-chlorophenyl hydrazone, reference compound] | 1.13 ± 0.02 | 1.56 ± 0.01 | – | – | –
2 | CC(C)C[C@@H]1NC(=O)[C@@H](Cc2c[nH]c3ccccc23)n2c1nc1cc(F)ccc1c2=O [Compound 12b, (1S,4R)-4-((1H-indol-3-yl)methyl)-9-fluoro-1-isobutyl-1,2-dihydro-6H-pyrazino[2,1-b]quinazoline-3,6(4H)-dione] | – | −0.07 ± 0.06 | 100 µM and 41.8 µg/mL | 0.96 ± 0.07 | MIC [3]: > 100 µM; MIC [5]: > 100 µM; MIC [6]: > 100 µM; MIC [7]: 77 µM and 32 µg/mL; MIC [8]: 38 µM and 16 µg/mL; MIC ([9]; ATCC29213): 77 µM; MIC ([9]; ATCC29213, value in parentheses): 32 µg/mL; RFI ± SD ([1]; compound at 100 μM): 0.77 ± 0.17; IC50 [11]: 58 ± 1.58 µM; RFI ± SD ([2]; compound at 100 μM): 1.47 ± 0.12
3 | CC(C)C[C@@H]1NC(=O)[C@@H](Cc2c[nH]c3ccccc23)n2c1nc1ccc(I)cc1c2=O [Compound 13a] | 0.48 ± 0.58 | 0.38 ± 0.01 | > 100 µM | 2.39 ± 0.09 | decrease in biofilm formation [12]: 91%
4 | CC(C)C[C@@H]1NC(=O)[C@@H](Cc2c[nH]c3ccccc23)n2c1nc1ccc(Br)cc1c2=O [Compound 13b] | 0.12 ± 0.05 | 0.52 ± 0.18 | > 100 µM | 1.53 ± 0.02 | –
5 | Cc1ccc2nc3n(c(=O)c2c1)[C@H](Cc1c[nH]c2ccccc12)C(=O)N[C@H]3C(C)C [Compound 13c] | 0.13 ± 0.05 | 0.17 ± 0.02 | 100 µM and 40 µg/mL | 0.94 ± 0.04 | –
6 | O=C1N[C@@H](Cc2ccc(OCc3ccccc3)cc2)c2nc3c(Cl)cc(Cl)cc3c(=O)n2[C@@H]1Cc1c[nH]c2ccccc12 [Compound 13d] | 0.55 ± 0.29 | −0.01 ± 0.03 | > 100 µM | 0.19 ± 0.08 | decrease in biofilm formation [13]: 61%
7 | COc1cccc2c1C(=O)c1c(O)c3c(c(O)c1C2=O)C[C@@](O)(C(=O)CO)C[C@@H]3O[C@H]1C[C@H](N)[C@H](O)[C@H](C)O1 [DOXO, Doxorubicin, reference compound] | – | – | – | – | IC50 [11]: 3.72 ± 0.15 µM
8 | COC(=O)[C@H]1[C@H]2C[C@@H]3c4[nH]c5cc(OC)ccc5c4CCN3C[C@H]2C[C@@H](OC(=O)c2cc(OC)c(OC)c(OC)c2)[C@@H]1OC [RES, reserpine, reference compound] | – | – | – | – | RFI ± SD ([10]; compound at 25 μM): 0.68 ± 0.05
9 | C[C@@H]1N[C@H]2N(C1=O)c1ccccc1[C@@]2(O)C[C@@H]1C(=O)N[C@@H](C)c2nc3ccccc3c(=O)n21 [fumiquinazoline A] | – | – | – | – | MIC [14]: 12.5 to 25 µg/mL
10 | C[C@H]1NC(=O)[C@@H](Cc2c[nH]c3ccccc23)n2c1nc1ccccc1c2=O [fumiquinazoline G] | – | – | – | – | MIC [14]: 12.5 to 25 µg/mL
